In patent US20070292888A1, “Methods for Measuring Enzyme Activities in Cells, Blood, Tumors and Tissues” (GEN-PATH PHARMACEUTICALS, INC., priority 2004, published 2007):

Target: T1, TK (Homo sapiens, UniProt P29401)
T1 sequence (P29401 1-623): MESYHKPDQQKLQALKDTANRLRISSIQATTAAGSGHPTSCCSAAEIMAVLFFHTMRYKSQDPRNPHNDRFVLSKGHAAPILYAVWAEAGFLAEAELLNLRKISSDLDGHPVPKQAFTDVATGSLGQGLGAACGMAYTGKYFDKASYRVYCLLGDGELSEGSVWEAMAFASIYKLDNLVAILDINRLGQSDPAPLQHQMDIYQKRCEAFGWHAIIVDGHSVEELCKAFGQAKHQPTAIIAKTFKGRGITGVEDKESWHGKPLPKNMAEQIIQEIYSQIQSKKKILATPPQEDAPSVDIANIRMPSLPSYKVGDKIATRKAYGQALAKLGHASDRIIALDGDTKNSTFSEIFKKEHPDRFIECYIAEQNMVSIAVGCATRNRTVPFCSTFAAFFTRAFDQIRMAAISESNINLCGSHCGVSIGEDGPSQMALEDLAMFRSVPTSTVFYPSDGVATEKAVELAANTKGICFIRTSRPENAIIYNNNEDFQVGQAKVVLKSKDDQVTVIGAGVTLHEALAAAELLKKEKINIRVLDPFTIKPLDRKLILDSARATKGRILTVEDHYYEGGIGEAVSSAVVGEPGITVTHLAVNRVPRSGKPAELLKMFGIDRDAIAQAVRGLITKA
Test: Cell-based TK inhibition in thiamine-depleted media, 96-well format
Design: endogenous in cells
Conditions: treated cells, 48 hours treatment
Experimental: We determined the IC50 of compounds that inhibit the activity of the TPP utilizing enzymes TK, kGDH and PDH in a convenient 96-well format using an optimized version of the method described in the previous Examples.
The high thiamine levels in conventional cell culture media (e.g., DMEM (12 μM), RPMI (3 μM)) masks the inhibitory effect of such inhibitors. To measure the IC50 of such inhibitors, thus, a thiamine depleted DMEM, containing all the ingredients of normal DMEM except for thiamine (HyClone, custom order), was used. Thiamine-depleted media (TDM) is made up with thiamine-depleted DMEM, 10% FBS, which contains negligible amount of thiamine (estimated to be ˜3-5% nM) and 1% Penicillin-streptomycin.
Log-phase growing cells were trypsinized and resuspended in TDM. Optimization of the initial cell counts is recommended for each cell line to ensure that enzyme activity can be observed at the beginning and that healthy growth can continue. For cell lines that have a doubling time of approximately 24 hours and cellular transketolase levels high enough to be reliably detected with five thousand (5K) cells such as HCT116 and HT1080, 8K cells are recommended.
Media containing 8K cells (95 μl) were used to seed individual wells in a 96-well clear-bottom cell cultured treated sterile plate. […] Enzymatic inhibition was expressed as percent of control wells that were not treated with compounds. […]

IC50: 20 nM
Structure (SMILES): Cc1ccc(C[n+]2csc(CCO)c2C)c(N)n1 [N3PT, 3-[(2-amino-6-methyl-3-pyridinyl)methyl]-5-(2-hydroxyethyl)-4-methyl thiazolium]
